Columns and labels:
TNF-α mRNA = TNF-α mRNA expression in THP1 cells under 25 mM glucose (RT-PCR); type: cell-based, human; conditions: 72 hours, relatively higher concentrations needed than for TXNIP mRNA
Method: FIGS. 2A-2B. FIG. 2A: C30 and C38 inhibited TXNIP mRNA expression in THP1 cells. THP1 cells were cultured under 25 mM glucose with the indicated concentrations of compounds for 72 hours. Cells were then collected for total RNA preparation. RT-PCR was performed, and data shown are the mean±SEM from triplicates. Statistical analysis was performed using one-way ANOVA, *p<0.0001. FIG. 2B: C30 and C38 inhibited TNF-α mRNA expression in THP1 cells. THP1 cells were cultured under 25 mM glucose with various concentrations of compounds as indicated for 72 hours and collected for total RNA preparation. RT-PCR was performed, and data shown are the mean±SEM from triplicates. Statistical analysis was performed using one-way ANOVA: *<0.02; **<0.0001.
Treatment with both agents lead to lower levels of TNF-α mRNA, although this required relatively higher concentrations compared to those that suppressed TXNIP mRNA (see FIG. 2A).
RNA extraction and quantitative RT-PCR. RNA was extracted using the Direct-zol™ RNA MiniPrep Plus (Zymo Research). […] Diluted cDNA was quantified using real-time PCR performed with Power SYBR Green qPCR MasterMix (Applied Biosystem) and 7500 real-time PCR system (Applied Biosystems). […]

[1] = Body weight after maximum dose regime (90 mg/kg) in mice; type: in vivo; conditions: 90 mg/kg oral gavage daily for 5 days, euthanasia 96 hr after last dose
Method: FIG. 15. Murine weight change after maximum dose regime (90 mg/kg).
The effects of compounds C30 and C38 at single high dose of 90 mg/kg. Twelve male mice were divided into three groups: 1) Control group (4 mice), 2) compound C30 (4 mice) and 3) compound C38 (4 mice). By oral gavage, animals were given 90 mg/kg of agent daily for 5 consecutive days (vehicle: 30% Solutol in saline). Mice were weighed every day during the treatment period. They were humanely euthanized 96 hours after the last dose. Tissues including the pancreas, liver and kidneys were collected (snap frozen in liquid nitrogen) for RNA extraction. […] Those given compound C30 lost ˜5% of body weight (FIG. 15).

TXNIP mRNA = TXNIP mRNA in human islets under high glucose plus cytokines; type: cell-based; conditions: 25 mM glucose + TNFα, IL1β, IFNγ, 40 hours
Method: FIGS. 18A-18B. C30 and C38 compounds protect cells from apoptosis in human islets. 100 IEQ human islets (Hu 1178) were cultured in PIM(R)© containing NG (5.8 mM glucose) or HG (25 mM glucose), and TNFα (20 ng/ml), IL1β (20 ng/ml), IFNγ (200 ng/ml) for 40 hours with or without lead compounds. Total RNA was prepared and RT PCR performed. FIG. 18A: BCL2/BAX ratios are the mean±SEM from triplicates. Statistical analysis was performed for each column vs. HG, 3 cytokines using one-way ANOVA: *p<0.002. FIG. 18B: TXNIP relative mRNA levels. Data shown are the mean±SEM from triplicates. Statistical analysis was performed for each column vs. HG, 3 cytokines using one-way ANOVA: **p<0.0001.
We mimicked T1D conditions in vitro (25 mM glucose, […], […] and […]) to induced apoptosis in human islets (obtained from the Southern California Islet Cell Resources Center at City of Hope). This high glucose/cytokine cocktail was able to induce apoptosis in cultured human islets as indicated by a decrease in the BCL2/BAX ratio (FIG. 18A).

Row | SMILES | TNF-α mRNA expression (TNF-α mRNA) | loss of body weight [1] [%] | TXNIP expression increased during apoptosis (TXNIP mRNA) | weight loss [1]
1 | COc1cc(N2CC[C@@H](c3ccc4ccccc4c3)[C@H](O)C2)nc(N)n1 [Compound C30] | reduced TNF-α expression | ~5 | significantly ameliorated | –
2 | c1ccc(CCNc2ncnc3c2oc2ccccc23)cc1 [Compound C38] | reduced TNF-α expression | – | significantly ameliorated | no significant weight loss

— patent publication US11964984B2, “TXNIP-TRX complex inhibitors and methods of using the same” (CITY OF HOPE, priority 2020, dated 2024)
